The record followed here is patent US20260216121A1, “3AH-CYCLOPENTA[B]BENZOFURAN-3A-YL AS RAS INHIBITORS” (SJP BIOTEC GMBH, priority 2023, published 2026).

A word on the IC50: it is the concentration that inhibits the measured activity by half. As a reminder, the AUC(0-inf) is the area under the concentration-time curve extrapolated to infinity. Usually Cmax stands for the highest concentration seen after dosing. Broadly, the fraction unbound is free concentration divided by total concentration.

Like-named read-outs stand apart in the source and are kept apart here.

One data set deals with HCT-116. The data set can be described thus: MTT assay for cell viability, HCT-116. Format: cell-based. To be noted: Homo sapiens, 48 h, mean from 3 independent experiments. Here is the method: (§1) Cells with RAS mutations were treated with compounds 1 and C-1 for 48 h and cell viability was evaluated by MTT assay. The results shown are mean from 3 independent experiments.
(§2) HCT-116 were authenticated by Eurofin genomics and cultured in DMEM (10% heat inactivated FBS). sNF96.2 were purchased from ATCC and cultured in DMEM (10% heat inactivated FBS+1 mM Na Pyruvate). ASPC-1 cells were purchased from DSMZ and cultured in RPMI-1640 (10% heat inactivated FBS). NCI-H358 were purchased from ATCC and cultured in RPMI-1640 (10% heat inactivated FBS). T24 and HCT-116 cells were cultured in Mccoy's 5A medium (10% heat inactivated FBS). HT-1080 cells were cultured in EMEM (10% heat inactivated FBS+1 mM Na Pyruvate).
(§3) Cancer cells were seeded in 96 well plates (5×10^3 cells/well) in 80 μl in growth medium and cultured for 1 day in the incubator. Next day, 20 μl of compounds containing growth medium was added to each well and the cells were cultured for 48 h. After incubation with compounds, 10 μl of MTT solution was added to the wells and incubated for 2-4 hours. After incubation with MTT, solubilization buffer was added and incubated over night. MTT was measured at O.D. 570 nm with a plate reader (Tecan). IC50 calculations by non-linear regression were conducted with GraphPad Prism 9.

The next data set has as its system H358. The data set can be described thus: MTT assay for cell viability, H358. Format: cell-based. The note with it: Homo sapiens, NCI-H358, 48 h, mean from 3 independent experiments. Here is the method: as §1, §2, §3
On the technique in general: Tetrazolium assays rely on reduction of a dye to a coloured formazan, in cell work by metabolically active cells.

In the next data set the test system is sNF96.2. The data set can be described thus: MTT assay for cell viability, sNF96.2. The class given is cell-based. The note with it: 48 h, mean from 3 independent experiments. Here is the method:
as §1, §2, §3

The next data set has as its target T1, NRAS G12V (Homo sapiens, UniProt P01111, G12V).
T1 construct: expressed in transfected cells; host or cells: HeLa
The data set can be described thus: NanoBiT assay for RAS GTP-loading (LgBit-NRAS G12V / SmBit-CRAF-RBD) in HeLa cells. Format: cell-based. As for the experimental part: (§4) NanoBiT assay for the RAS GTP-loading was performed in HeLa cells transfected with LgBit-K, N and HRAS G12V and SmBit-CRAF-RBD. Cells were treated with compounds 1 or C-1 for 2 h in serum-free DMEM (Dulbecco's modified Eagle's Medium). After incubation, the substrate for NanoLuc was added, and the luminescence was measured using a multiplate reader. Data were normalized to cells transfected with the indicated mutant and exposed to DMSO for 2 h. DMSO-treated cells were set as 1. The results shown are mean from 3 independent experiments.
(§5) HeLa cells were harvested with 0.05% Trypsin/0.02% EDTA in PBS and seeded in 6 well or 12 well cell culture plates at the concentration of 5×10^4 cells in complete DMEM (2 ml for 6 well plate and 1 ml for 12 well plate). After 1 day from seeding, the DNA were transfected with Flag tagged Ras or NanoBiT plasmid using PEI/PBS solution.
(§6) The plasmids were transfected to HeLa cells and the cells were harvested after 1 day of transfection. The cells were seeded to 96 well white plate. Next day, the medium was changed to serum free DMEM for 2 h with compounds. After incubation, Nano Glo assay was performed. The luminescence was measured using Tecan SPARKS (Tecan). IC50 calculations by non-linear regression were conducted with GraphPad Prism 9.

For the next data set, the system named is T24. The data set can be described thus: MTT assay for cell viability, T24. The note with it: Homo sapiens, T-24, 48 h, mean from 3 independent experiments. Format: cell-based. As for the experimental part:
as §1, §2, §3

The next data set is described as follows: iv (intravenous) PK. Format: in vivo. The note with it: for AUCinf(h*nM) Free / C average (nM) free / Cmax (nM), Free / AUC(0-inf) / Cmax / half-life: 2 mg/kg; for AUCinf(h*nM) Free / C average (nM) free / Cmax (nM), Free / half-life: i.v.; for Unbound clearance: Table 4, other values of the table equal the 2 mg/kg i.v. data; for AUC(0-inf) / Cmax / half-life: in vivo, iv; for half-life: read-out: T½ (converted). An excerpt: (§7) After administration, a certain amount of drug is in the blood or plasma. Of the total amount in the blood or plasma, some is bound to proteins (or other species in the blood or plasma). Only unbound drug is available e.g., for drug-target interactions. Therefore, the higher the unbound fraction that is available in the blood or plasma, the more is available for binding the drug to a target. The less unbound drug is available in the blood or plasma e.g., because it is involved in competitive binding to, for example, albumin, the less is available for desired drug-target interaction. The protocol for determining the unbound fraction and pharmacokinetics is routine practice and known to the skilled person.

The target in the next data set is T2, HRAS G12V (Homo sapiens, UniProt P01112, G12V).
T2 construct: expressed in transfected cells; host or cells: HeLa
The data set can be described thus: NanoBiT assay for RAS GTP-loading (LgBit-HRAS G12V / SmBit-CRAF-RBD) in HeLa cells. Format: cell-based. As for the experimental part:
as §4, §5, §6

In another data set the test system is ASPC1. The data set can be described thus: MTT assay for cell viability, ASPC1. The class given is cell-based. The note with it: Homo sapiens, 48 h, mean from 3 independent experiments. Here is the method: as §1, §2, §3
The subject of the next data set is HT-1080. The data set can be described thus: MTT assay for cell viability, HT-1080. Format: cell-based. The note with it: Homo sapiens, 48 h, mean from 3 independent experiments. As for the experimental part: as §1, §2, §3
Data set [1] in a line: Unbound fraction in human plasma (equilibrium dialysis). Format: in vitro ADME. The note with it: pH 7.4, dialysis 4 hours at 37 °C.
Description: as §7
HT-Dialysis plates (Model HTD 96 b, Cat #1006) and the dialysis membrane (molecular weight cut off 12-14 KDa, Cat #1101) were purchased from HT Dialysis LLC (Gales Ferry, CT).
Dialysis Buffer (100 mM sodium phosphate and 150 mM NaCl, pH 7.4±0.1)
Stop Solution (Acetonitrile containing tolbutamide at 200 ng/mL, labetalol at 200 ng/mL)
On the day of experiment, the plasma was thawed under running cold tap water and centrifuged at 3220×g for 5 min to remove any clots. The pH value was checked and recorded. […]
The dialysis membrane was pretreated according to the manufacturer's instructions: the dialysis membrane strips were soaked in ultra-pure water at room temperature for approximately 1 hr. Afterwards, each membrane strip that contains 2 membranes was separated and soaked in ethanol:water (20:80 v:v) for approximately 20 min, after which it was ready for use or was stored in the solution at 2-8° C. for up to 1 month. […]
The % Unbound, % Bound and % Recovery were calculated using the following equations:
[formula] […] [formula] • F=Free compound concentration as determined by the calculated concentration on the buffer side of the membrane • T=Total compound concentration as determined by the calculated concentration on the matrix side of the membrane • T0=Total compound concentration as determined by the calculated concentration in matrix before dialysis
Background: In equilibrium dialysis only unbound substance equilibrates across the membrane.

A further data set addresses T3, KRAS G12V (Homo sapiens, UniProt P01116, G12V).
T3 construct: expressed in transfected cells; host or cells: HeLa
The data set can be described thus: NanoBiT assay for RAS GTP-loading (LgBit-KRAS G12V / SmBit-CRAF-RBD) in HeLa cells. The class given is cell-based. As for the experimental part: as §4, §5, §6

Another data set is described as follows: oral PK. Format: in vivo. To be noted: for AUC(0-inf) / Cmax / average free concentration at 24 h / half-life: in vivo; for average free concentration at 24 h: read-out: C average (nM) free; for half-life: read-out: T½ (converted).
Description: as §7

The mark [2] stands for this setting: IC50 (nM, KRAS G12V), as listed in the PK tables 1-4, assay not named.

T3 sequence (P01116 1-186 isoform P01116-2 G12V limits assumed): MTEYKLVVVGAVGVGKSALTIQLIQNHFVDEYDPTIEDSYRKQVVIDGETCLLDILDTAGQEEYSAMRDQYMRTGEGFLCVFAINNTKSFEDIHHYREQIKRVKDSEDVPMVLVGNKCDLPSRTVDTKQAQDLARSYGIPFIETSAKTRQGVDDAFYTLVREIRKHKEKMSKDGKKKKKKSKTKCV
T1 sequence (P01111 1-186 G12V limits assumed): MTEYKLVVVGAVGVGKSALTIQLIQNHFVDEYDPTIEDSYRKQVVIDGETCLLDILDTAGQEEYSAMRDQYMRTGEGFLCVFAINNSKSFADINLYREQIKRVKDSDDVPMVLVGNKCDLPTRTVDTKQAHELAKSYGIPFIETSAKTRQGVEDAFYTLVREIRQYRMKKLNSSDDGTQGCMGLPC
T2 sequence (P01112 1-186 G12V limits assumed): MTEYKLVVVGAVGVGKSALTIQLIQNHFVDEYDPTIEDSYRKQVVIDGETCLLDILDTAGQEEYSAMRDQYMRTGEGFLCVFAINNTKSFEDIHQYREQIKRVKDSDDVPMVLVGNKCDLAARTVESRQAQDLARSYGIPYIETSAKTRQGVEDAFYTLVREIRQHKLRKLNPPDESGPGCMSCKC

In the case of `COc1cc(OC)c2c(c1)O[C@@]1(c3ccc(C#N)cc3)[C@H](c3cccc(F)c3)C[C@@H](O)[C@@]21O` (single isomer, unassigned) [Compound 1], the IC50 stood at 8.99 nM with HCT-116; 15.6 nM with H358; 3.69 nM in the data set on sNF96.2; 20.2 nM at NRAS G12V; 13.2 nM in the data set on T24; 13.6 nM at HRAS G12V. Also, the IC50 in the data set with ASPC1 is 11.9 nM; in the data set with HT-1080, 5.39 nM; on KRAS G12V (IC50 (nM) KRAS G12V, NanoBiT, HeLa cells, 2 h in serum-free DMEM), 16.5 nM; against KRAS G12V (setting [2]), 8.5 nM. For the same compound, the results for the “AUCinf(h*nM) Free” value in “iv (intravenous) PK” and in the data set “oral PK” (50 mg/kg) were 19.8 nM·h and 378.6 nM·h, respectively. The “C average (nM) free” value in “iv (intravenous) PK” came to 0.8 nM. The entries for the “Cmax (nM), Free” value in the data set “iv (intravenous) PK” and in the data set “oral PK” (50 mg/kg) were 30.4 nM and 105.3 nM, respectively. Moreover, the “Unbound clearance” value in “iv (intravenous) PK” is 3683.3 mL/min/kg. For the same compound, the AUC(0-inf) in “iv (intravenous) PK” was 0.8 µM·h; in the data set “oral PK” (50 mg/kg), 14.6 µM·h. The Cmax in “iv (intravenous) PK” stood at 1200 nM; in the data set “oral PK” (50 mg/kg) it was 4100 nM. For the same compound, the half-life in the data set “iv (intravenous) PK” was 54 min; in “oral PK” (50 mg/kg) it was 210 min. Further, the fraction unbound at 4 h, 2 µM in data set [1] was 0.026. Besides, the average free concentration at 24 h in the data set “oral PK” (50 mg/kg) turned out to be 15.8 nM.
Turning to `COc1cc(OC)c2c(c1)O[C@@]1(c3ccc(C#N)cc3)[C@H](c3ccccc3)C[C@@H](O)[C@@]21O` (single isomer, unassigned) [Compound 2], in “iv (intravenous) PK”, the “AUCinf(h*nM) Free” value came out at 51.8 nM·h; the “C average (nM) free” value stood at 2.2 nM; the “Cmax (nM), Free” value is reported as 43.7 nM; the “Unbound clearance” value amounted to 1580.9 mL/min/kg. In the data set “iv (intravenous) PK”, the AUC(0-inf) was found to be 2.1 µM·h, the Cmax turned out to be 1700 nM and the half-life is 240 min. Besides, the fraction unbound at 4 h, 2 µM in [1] was determined as 0.025. This compound also displayed an IC50 against KRAS G12V (setting [2]) of 5.4 nM. In addition, in the data set “oral PK” (10 mg/kg), the “AUCinf(h*nM) Free” value was determined as 26.6 nM·h; the “Cmax (nM), Free” value worked out at 21.4 nM; the AUC(0-inf) is 1.1 µM·h; the Cmax was found to be 900 nM. For the same compound, in the data set “oral PK” (10 mg/kg), the average free concentration at 24 h worked out at 1.1 nM and the half-life was 78 min.
`COc1cc(OC)c2c(c1)O[C@@]1(c3ccc(Cl)cc3)[C@H](c3ccccc3)C[C@@H](O)[C@@]21O` [Compound C-1, (1R,3S,3aR,8bS)-3a-(4-chlorophenyl)-6,8-dimethoxy-3-phenyl-1,2,3,3a-tetrahydro-8bH-cyclopenta[b]benzofuran-1,8b-diol, reference compound]: the IC50 in the data set with HCT-116 turned out to be 21.9 nM; in the data set on H358, 40 nM; in the data set with sNF96.2, 7.22 nM; at NRAS G12V (NanoBiT, HeLa cells, 2 h in serum-free DMEM, read-out: IC50 (nM) NRAS G12V) it was 61.4 nM; in the data set on T24, 28.5 nM; on HRAS G12V (NanoBiT, HeLa cells, 2 h in serum-free DMEM, read-out: IC50 (nM) HRAS G12V), 53.5 nM. For the same compound, the IC50 turned out to be 26.6 nM in the data set on ASPC1; 18 nM with HT-1080; 56.6 nM at KRAS G12V (NanoBiT, HeLa cells, 2 h in serum-free DMEM, read-out: IC50 (nM) KRAS G12V); 29 nM on KRAS G12V (as listed in the PK tables 1-4, assay not named, read-out: IC50 (nM, KRAS G12V)). Further, the “AUCinf(h*nM) Free” value in the data set “iv (intravenous) PK” worked out at 7.9 nM·h; in “oral PK” (10 mg/kg) it was 4.9 nM·h; in “oral PK” (50 mg/kg), 109.8 nM·h. Further, the “C average (nM) free” value in the data set “iv (intravenous) PK” is given as 0.3 nM. Also, the “Cmax (nM), Free” value in the data set “iv (intravenous) PK” is listed as 14.5 nM; in “oral PK” (10 mg/kg) it was 2.3 nM; in the data set “oral PK” (50 mg/kg), 34.3 nM. Further, the “Unbound clearance” value in the data set “iv (intravenous) PK” was found to be 9689.7 mL/min/kg. For the same compound, the AUC(0-inf) stood at 0.9 µM·h in the data set “iv (intravenous) PK”, 0.6 µM·h in “oral PK” (10 mg/kg) and 12.6 µM·h in “oral PK” (50 mg/kg). The Cmax stood at 1700 nM in “iv (intravenous) PK”, 300 nM in the data set “oral PK” (10 mg/kg) and 3900 nM in the data set “oral PK” (50 mg/kg). Also, the half-life in the data set “iv (intravenous) PK” is 78 min; in the data set “oral PK” (10 mg/kg) it was 102 min; in “oral PK” (50 mg/kg), 162 min. Further, in [1], the fraction unbound at 4 h, 2 µM was 0.009. Besides, the results for the average free concentration at 24 h in “oral PK” (10 mg/kg) and in the data set “oral PK” (50 mg/kg) were 0.2 nM and 4.6 nM, respectively.
